The source of these data is patent US8455516B2, “HIV-1 fusion inhibitors and methods” (Touro University, priority 2010, dated 2013).

Where two headings read alike, the source gives them in different places. A value given as a limit tells only on which side of the number the result lay.

For orientation: IC50 means the concentration needed to halve the response being measured. High values mean weaker potency, low ones greater potency. For orientation: IC90 means the concentration needed for an effect of 90%. A high value points to weaker potency. What is called Ki is a dissociation constant, usually derived from enzyme kinetics or from competition with a known ligand.

The subject of series [1] is HIV-1 IIIB. Description: HIV-1 viral infectivity inhibition, IIIB. The format is cell-based. Conditions: Human immunodeficiency virus 1, IIIB. As to the method:
(§1) The ability of the compounds to inhibit HIV-1 infectivity was assessed using standard assays as reported in the literature. See: 1) Desmezieres, E.; Gupta, N.; Vassell, R.; He, Y.; Peden, K.; Sirota, L.; Yang, Z.; Wingfield, P.; Weiss, C. D. J Virol 2005, 79, 4774, and 2) Lackman-Smith, C.; Osterling, C.; Luckenbaugh, K.; Mankowski, M.; Snyder, B.; Lewis, G.; Paull, J.; Profy, A.; Ptak, R. G.; Buckheit, R. W., Jr.; Watson, K. M.; Cummins, J. E.; Sanders-Beer, B. E. Antimicrob Agents Chemother 2008.

The subject of series [2] is HIV-1 Ba-L. Description: HIV-1 viral infectivity inhibition, Ba-L. The format is cell-based. Conditions: Human immunodeficiency virus 1, BAL. As to the method: as §1
Series [3] deals with Pseudovirus HIV-1 BAL (CCR5-tropic strain).
The test system of series [4] is MAGI cells. Conditions: human.
Series [5] is described as follows: in vitro. Conditions: human.
Series [6] has as its system Pseudovirus HIV-1 BAL (CCR5-tropic strain). The experiment in a line: microbe, parasite or virus in culture. Conditions: MAGI.
The nature of series [7]: cytotoxicity, luciferase expression-based test. Conditions: human, TZM-bl cells.
In series [8] the test system is TZM-bl cells. Description: cytotoxicity, luciferase expression-based test. As to conditions: toxicity to TZM-bl cells, 24 hour exposure.
Series [9] relates to HIV-1 HXB2. Description: HIV-1 viral infectivity inhibition, HXB2. The format is cell-based. As to conditions: Human immunodeficiency virus 1, HXB2. As to the method: as §1
Series [10] addresses T1, gp41 hydrophobic pocket (receptor Fe(env2.0)3) (Human immunodeficiency virus type 1 group M subtype B, UniProt P04578).
T1 construct: utilizing a receptor Fe(env2.0)3 selective for the hydrophobic pocket
Description: competitive inhibition fluorescence binding assay for the gp41 hydrophobic pocket. Further details: species or system HIV-1. Conditions: binding constant, hydrophobic pocket of gp41. As to the method: Compounds were validated for binding activity with a biochemical assay, and for biological activity with a cell-cell fusion (CCF) assay.
Association between the C-peptide and receptor leads to fluorescence quenching, which is reversed in the presence of an inhibitor. […] The assay is quantitative and provides the binding constant (KI) of the inhibitor.
Toxicity of the compounds to TZM-bl cells was also tested to ensure that the luminescence decrease was not simply due to cell death (CC50, toxicity).

`O=C(O)c1cccc(Cc2ccc3cc[nH]c3c2)c1` [Compound I-1, 3-((1H-indol-6-yl)methyl)benzoic acid]: the IC50 in series [1] is 99.9 µM; in series [2], 44.7 µM; in [6] (2% Serum), 15.5 µM; in series [6] (5% Serum), 34.8 µM; in [6] (10% Serum) it was 44.7 µM. The “TI (TC50/IC50)” value in [3] (2% Serum) was above 6.45; in series [3] (5% Serum) it was above 2.87; in series [3] (10% Serum), above 2.24. For the same molecule, the CC50 in [4] and in [5] was above 100 µM throughout. Besides, the 90% effect concentration (IC90) in [6] (2% Serum) is 58 µM; in [6] (5% Serum), 89.4 µM; in series [6] (10% Serum), above 100 µM. In addition, in [7], the CC50 at 24 h is above 500 µM.
`COc1ccc(Cn2ccc3ccc(Cc4cccc(C(=O)O)c4)cc32)cc1` [Compound I-2, 3-((1-(4-methoxybenzyl)-1H-indol-6-yl)methyl)benzoic acid] returned a CC50 in series [8] of 100 µM.
Molecule `O=C(O)C(=O)c1c[nH]c2cc(Cc3cccc(C(=O)O)c3)ccc12` [Compound I-3, 3-((3-(carboxycarbonyl)-1H-indol-6-yl)methyl)benzoic acid] displayed a CC50 at 24 h in series [7] above 100 µM.
`O=C(O)c1cccc(Cc2ccc3ccn(Cc4cccc(C(=O)O)c4)c3c2)c1` [Compound I-4, 3-((1-(3-(carboxy)benzyl)-1H-indol-6-yl)methyl)benzoic acid] yielded a CC50 at 24 h in [7] above 200 µM.
`O=C(O)c1cccc(Cc2ccc3ccn(Cn4ccc5ccc(Cc6cccc(C(=O)O)c6)cc54)c3c2)c1` [Compound I-5, 3,3′-(1,1′-methylenebis(1H-indole-6,1-diyl))bis(methylene)dibenzoic acid]: the half-maximal inhibitory concentration (IC50) in series [9] was 17 µM; in series [1] it was at least 100 µM; in [2], 92.1 µM; in series [6] (2% Serum) it was 14.6 µM; in series [6] (5% Serum), 49.6 µM; in [6] (10% Serum), 92.1 µM. In addition, the “TI (TC50/IC50)” value is recorded as above 6.85 in [3] (2% Serum), above 2.02 in [3] (5% Serum) and above 1.09 in series [3] (10% Serum). For the same molecule, the CC50 in series [4] and in series [5] was above 100 µM in each case. Besides, the IC90 is 71.2 µM in series [6] (2% Serum), 93.6 µM in [6] (5% Serum) and above 100 µM in series [6] (10% Serum). The molecule also came in with a CC50 at 24 h in series [7] above 100 µM.
Turning to `O=C(O)c1cccc(Cc2ccc3ccn(-c4cccc(C(=O)O)c4)c3c2)c1` [Compound I-6, 3-(6-(3-carboxybenzyl)-1H-indol-1-yl)benzoic acid], in [10], the Ki was found to be 45 ± 5 µM. This molecule gave a CC50 in series [8] above 400 µM.
Turning to `COc1cccc(-n2ccc3ccc(Cc4cccc(C(=O)O)c4)cc32)c1` [Compound I-7, 3-((1-(3-methoxyphenyl)-1H-indol-6-yl)methyl)benzoic acid], the IC50 in [1] is 61.5 µM; in [2], 67.7 µM; in series [6] (2% Serum), 15.8 µM; in series [6] (5% Serum) it was 34 µM; in series [6] (10% Serum), 67.7 µM. Besides, the results for the “TI (TC50/IC50)” value in [3] (2% Serum), in series [3] (5% Serum) and in [3] (10% Serum) were above 6.33, above 2.94 and above 1.48, respectively. For the same molecule, the CC50 in series [4] and in series [5] was above 100 µM each time. Also, the IC90 in [6] (2% Serum), in [6] (5% Serum) and in series [6] (10% Serum) was above 100 µM in each case. The molecule further came in with a CC50 at 24 h in [7] above 100 µM.
Turning to `O=Cc1c[nH]c2cc(Cc3cccc(C(=O)O)c3)ccc12` [Compound I-8, 3-((3-formyl-1H-indol-6-yl)methyl)benzoic acid], in [7], the CC50 at 24 h is above 100 µM.
As for `O=C(O)c1cccc(Cc2ccc3[nH]ccc3c2)c1` [Compound I-9, 3-((1H-indol-5-yl)methyl)benzoic acid], the CC50 at 24 h in series [7] was above 400 µM.
On to `O=C(O)c1cccc(Cc2ccc3c(ccn3Cc3cccc(C(=O)O)c3)c2)c1` [Compound I-10, 3-((1-(3-carboxybenzyl)-1H-indol-5-yl)methyl)benzoic acid], for which the CC50 in series [8] is above 400 µM.
Consider `COc1cccc(-c2ccc3ccn(Cc4cccc(C(=O)O)c4)c3c2)c1` [Compound I-11, 3-((6-(3-methoxyphenyl)-1H-indol-1-yl)methyl)benzoic acid], for which the IC50 in series [1] came out at 57.4 µM; in series [2], 47.4 µM; in series [6] (2% Serum) it was 18 µM; in series [6] (5% Serum), 36.6 µM; in series [6] (10% Serum), 47.4 µM. For the same molecule, the “TI (TC50/IC50)” value is recorded as 3.75 in series [3] (2% Serum), above 2.73 in series [3] (5% Serum) and above 2.11 in series [3] (10% Serum). The molecule further returned a CC50 in series [5] above 100 µM. The concentration for an effect of 90% (IC90) in series [6] (2% Serum), in series [6] (5% Serum) and in [6] (10% Serum) was above 100 µM each time. Also, the CC50 at 24 h in series [7] is above 100 µM.
Turning to `O=C(O)c1cccc(-c2ccc3cc[nH]c3c2)c1` [Compound I-12, 3-(1H-indol-6-yl)benzoic acid], in [7], the CC50 at 24 h is above 100 µM.
On to `O=C(O)c1cccc(Cn2ccc3cc(-c4cccc(C(=O)O)c4)ccc32)c1` [Compound I-13, 3-(1-(3-carboxybenzyl)-1H-indol-5-yl)benzoic acid], for which, in [8], the CC50 was above 400 µM.
As for `O=C(O)c1cccc(Cn2ccc3ccc(-c4cccc(O)c4)cc32)c1` [Compound I-14, 3-((6-(3-hydroxyphenyl)-1H-indol-1-yl)methyl)benzoic acid], in series [7], the CC50 at 24 h was above 100 µM.
On the same count and under the same terms, under `O=[N+]([O-])c1cccc(Cc2ccc3cc[nH]c3c2)c1` [Compound I-15, 6-(3-nitrobenzyl)-1H-indole] stands around 63 µM.
In series [7], `O=C(O)c1ccc([N+](=O)[O-])c(Cc2ccc3cc[nH]c3c2)c1` [Compound I-16, 3-((1H-indol-6-yl)methyl)-4-nitrobenzoic acid] had a CC50 at 24 h above 100 µM.
Still for that read-out and setting: under `COc1ccc(C(=O)O)cc1Cc1ccc2cc[nH]c2c1` [Compound I-17, 3-((1H-indol-6-yl)methyl)-4-methoxybenzoic acid] stands above 100 µM; under `O=C(O)c1cc(O)cc(Cc2ccc3cc[nH]c3c2)c1` [Compound I-18, 3-((1H-indol-6-yl)methyl)-5-hydroxybenzoic acid], above 100 µM.
`O=C(O)c1ccc(O)c(Cc2ccc3cc[nH]c3c2)c1` [Compound I-19, 3-((1H-indol-6-yl)methyl)-4-hydroxybenzoic acid] gave a CC50 at 24 h in series [7] above 100 µM.
The same measure, in the same setting: with `COc1cc(Cc2ccc3cc[nH]c3c2)cc(C(=O)O)c1` [Compound I-20, 3-((1H-indol-6-yl)methyl)-5-methoxybenzoic acid] the figure was above 100 µM.
Still for that read-out and setting: with `O=C(O)c1cccc(COc2cccc(-c3ccc4ccn(Cc5cccc(C(=O)O)c5)c4c3)c2)c1` [Compound I-21, 3-((3-(1-(3-carboxybenzyl)-1H-indol-6-yl)phenoxy)methyl)benzoic acid] the figure was above 100 µM.
For `COc1ccc(COc2cccc(-c3ccc4ccn(Cc5cccc(C(=O)OCc6cccc(C(=O)O)c6)c5)c4c3)c2)cc1` [Compound I-22, 3-((3-((6-(3-(4-methoxybenzyloxy)phenyl)-1H-indol-1-yl)methyl)benzoyloxy)methyl)benzoic acid], the “TI (TC50/IC50)” value is 4.27 in series [3] (2% Serum), above 5.35 in series [3] (5% Serum) and above 4.42 in series [3] (10% Serum). Further, the CC50 in series [5] was above 100 µM. Further, the 50% inhibitory concentration (IC50) was determined as 13.8 µM in series [6] (2% Serum), 18.7 µM in [6] (5% Serum) and 22.6 µM in series [6] (10% Serum). In addition, the results for the IC90 in series [6] (2% Serum), in series [6] (5% Serum) and in series [6] (10% Serum) were 31.1 µM, 76.4 µM and 91.7 µM, respectively. The CC50 at 24 h in [7] is above 100 µM.
`O=C(O)c1cccc(Cn2ccc3ccc(-c4ccc5cc(Cl)ccc5n4)cc32)c1` [II-1, 3-((6-(6-chloroquinolin-2-yl)-1H-indol-1-yl)methyl)benzoic acid]: the CC50 at 24 h in [7] came to 93 µM.
The molecule `O=C(O)c1cccc(Cn2ccc3cc(-c4ccc5cc(Cl)ccc5n4)ccc32)c1` [II-2, 3-((5-(6-chloroquinolin-2-yl)-1H-indol-1-yl)methyl)benzoic acid] displayed a CC50 at 24 h in series [7] of 156 µM.
The molecule `COc1ccc(Cn2ccc3ccc(-c4ccc5ccn(Cc6cccc(C(=O)O)c6)c5c4)cc32)cc1` [II-3, 3-((1′-(4-methoxybenzyl)-1H,1′H-6,6′-biindol-1-yl)methyl)benzoic acid] had a CC50 at 24 h in [7] of 18.9 ± 2.9 µM.
